{"source": "patent US12514832B2", "about": "“Methods for using low-dose colchicine after myocardial infarction” (INSTITUT DE CARDIOLOGIE DE MONTREAL, priority 2019, dated 2026)", "test": "COLCOT safety and adverse events (safety population)", "format": "in vivo, human", "experimental": "All serious adverse events were recorded. The only other adverse events recorded were those that were considered to be related to the gastrointestinal system, events that were judged by the investigator to be related to colchicine or placebo, or laboratory abnormalities that had been judged by the investigator to be clinically significant.", "data": [{"compound": "COc1cc2c(c(OC)c1OC)-c1ccc(OC)c(=O)cc1[C@@H](NC(C)=O)CC2", "note": "[Colchicine, colchicine]", "values": [{"measurement": "trial regimen discontinued, percent of patients", "setting": "at the end of the trial", "value": 18.4, "unit": "%"}, {"measurement": "incidence of septic shock (in words)", "setting": "colchicine vs placebo", "value": "did not increase the incidence of septic shock"}, {"measurement": "Cancers, excluding nonmelanoma skin cancers, number of patients", "setting": "safety population", "value": 42}, {"measurement": "Cancers, excluding nonmelanoma skin cancers, percent", "setting": "safety population", "value": 1.8, "unit": "%"}, {"measurement": "Anemia, number of patients", "setting": "safety population, N=2330", "value": 14}, {"measurement": "Anemia, percent", "setting": "safety population, N=2330", "value": 0.6, "unit": "%"}, {"measurement": "Any related adverse event, number of patients", "setting": "safety population, N=2330", "value": 372}, {"measurement": "Any related adverse event, percent", "setting": "safety population, N=2330", "value": 16.0, "unit": "%"}, {"measurement": "Any serious adverse event, number of patients", "setting": "safety population, N=2330", "value": 383}, {"measurement": "Any serious adverse event, percent", "setting": "safety population, N=2330", "value": 16.4, "unit": "%"}, {"measurement": "Cancer, number of patients", "setting": "safety population, N=2330", "value": 43}, {"measurement": "Cancer, percent", "setting": "safety population, N=2330", "value": 1.8, "unit": "%"}, {"measurement": "Diarrhea adverse event, number of patients", "setting": "safety population, N=2330", "value": 225}, {"measurement": "Diarrhea adverse event, percent", "setting": "safety population, N=2330", "value": 9.7, "unit": "%"}, {"measurement": "Flatulence adverse event, number of patients", "setting": "safety population, N=2330", "value": 15}, {"measurement": "Flatulence adverse event, percent", "setting": "safety population, N=2330", "value": 0.6, "unit": "%"}, {"measurement": "Gastrointestinal adverse event, number of patients", "setting": "safety population, N=2330", "value": 408}, {"measurement": "Gastrointestinal adverse event, percent", "setting": "safety population, N=2330", "value": 17.5, "unit": "%"}, {"measurement": "Gastrointestinal hemorrhage, number of patients", "setting": "safety population, N=2330", "value": 7}, {"measurement": "Gastrointestinal hemorrhage, percent", "setting": "safety population, N=2330", "value": 0.3, "unit": "%"}, {"measurement": "Gastrointestinal serious adverse event, number of patients", "setting": "safety population, N=2330", "value": 46}, {"measurement": "Gastrointestinal serious adverse event, percent", "setting": "safety population, N=2330", "value": 2.0, "unit": "%"}, {"measurement": "Hospitalization for heart failure, number of patients", "setting": "safety population, N=2330", "value": 25}, {"measurement": "Hospitalization for heart failure, percent", "setting": "safety population, N=2330", "value": 1.1, "unit": "%"}, {"measurement": "Infection serious adverse event, number of patients", "setting": "safety population, N=2330", "value": 51}, {"measurement": "Infection serious adverse event, percent", "setting": "safety population, N=2330", "value": 2.2, "unit": "%"}, {"measurement": "Leukopenia, number of patients", "setting": "safety population, N=2330", "value": 2}, {"measurement": "Leukopenia, percent", "setting": "safety population, N=2330", "value": 0.1, "unit": "%"}, {"measurement": "Nausea adverse event, number of patients", "setting": "safety population, N=2330", "value": 43}, {"measurement": "Nausea adverse event, percent", "setting": "safety population, N=2330", "value": 1.8, "unit": "%"}, {"measurement": "Pneumonia serious adverse event, number of patients", "setting": "safety population, N=2330", "value": 21}, {"measurement": "Pneumonia serious adverse event, percent", "setting": "safety population, N=2330", "value": 0.9, "unit": "%"}, {"measurement": "Septic shock serious adverse event, number of patients", "setting": "safety population, N=2330", "value": 2}, {"measurement": "Septic shock serious adverse event, percent", "setting": "safety population, N=2330", "value": 0.1, "unit": "%"}, {"measurement": "Thrombocytopenia, number of patients", "setting": "safety population, N=2330", "value": 3}, {"measurement": "Thrombocytopenia, percent", "setting": "safety population, N=2330", "value": 0.1, "unit": "%"}, {"measurement": "serious adverse event of myopathy", "setting": "statins used in 99% of trial participants", "value": "no serious adverse event of myopathy linked to colchicine occurred"}]}]}
